Entries after “also recorded” stand apart in the source; their conditions may differ. Where no end group is shown, it is not given here.
Assays:
[1] = system: cGMP formation; conditions: versus VIP; cited from earlier work
[2] = cited from earlier work
[3] = system: vaginal muscle; experiment: Rabbit vaginal contraction in organ bath (force transducer); format: cell-based, New Zealand female rabbit
Description: The vagina of 12-week-old New Zealand female rabbit was removed, exiced to 1 cm length and immersed in 10 ml of capacity organ bath connected to an external reservoir of Krebs-Henseleit in constant temperature of 37° C. The solution was oxygenated (95%O2/[…]). The effect of VIP and SNV on vaginal contraction was measured by attaching the vaginal muscle to a force transducer.

[4] = system: uterine smooth muscle activity and vaginal blood flow; conditions: systemic administration to females; cited from earlier work
[5] = system: penile erection; conditions: in the male; cited from earlier work

For Stearoyl-norleucine^17-VIP [SNV], the “potency in enhancing cGMP formation relative to VIP” value [1] is given as 1000 fold, the bioavailability [2] is given as “increased stability and bioavailability” and the “effect on contraction force (inotropic effect)” value ([3]; 0.3 μM peptide, 0.5 μM phenylephrine, FIG. 2) is given as “reduced the contraction force”. For the same substance, the “effect on rate of vaginal contraction” value ([3]; 0.3 μM peptide, contraction stimulated by 0.5 μM phenylephrine, FIG. 2) was “attenuated the rate of vaginal contraction” and the “effect on vaginal contraction at high concentration” value ([3]; 1.5 μM peptide (b76 prints 1.5 M), contraction stimulated by 0.5 μM phenylephrine, FIG. 3) was “blocked vaginal contraction; also recorded: neutralized vaginal contraction”.

In the case of “vasoactive intestinal peptide (HSDAVFTDNYTRLRKQMAVKKYLNSILN; ends and bridges not checked; UniProt P01282 125-152, looked up) [VIP]”, the “uterine smooth muscle activity” value [4] is given as “decrease uterine smooth muscle activity”, the vaginal blood flow [4] is given as “increase vaginal blood flow” and the penile erection [5] is given as “induces penile erection”. For the same substance, the “effect on vaginal contraction” value ([3]; 0.3 μM peptide, preliminary results, FIG. 1) was “neutralized vaginal contraction”.

Source: patent US20050075284A1, “Pharmaceutical compositions comprising vip-related peptides for the treatment of sexual disorders” (priority 2001, published 2005)
